Each molecule was assayed against T1, Gonadotropin-releasing hormone receptor (Homo sapiens, UniProt P30968) (assay: Binding affinity was determined against human gonadotropin-releasing hormone receptor).
T1 sequence (P30968 whole entry): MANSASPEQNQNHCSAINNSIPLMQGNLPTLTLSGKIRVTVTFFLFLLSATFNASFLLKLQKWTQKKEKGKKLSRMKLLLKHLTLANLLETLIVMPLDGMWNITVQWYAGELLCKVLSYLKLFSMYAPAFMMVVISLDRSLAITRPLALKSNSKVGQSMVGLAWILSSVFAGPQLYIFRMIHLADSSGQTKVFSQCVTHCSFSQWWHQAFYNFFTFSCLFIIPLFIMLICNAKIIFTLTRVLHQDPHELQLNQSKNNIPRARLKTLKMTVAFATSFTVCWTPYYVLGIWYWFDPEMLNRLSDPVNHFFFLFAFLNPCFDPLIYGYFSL
`NC(Cn1c(=O)c(-c2ccccc2F)c2n(c1=O)C(c1ccccc1F)CO2)c1ccccc1` (stereo not given) was tested, and the Ki was 230 nM. With `NC(Cn1c(=O)c(-c2ccccc2F)c2n(c1=O)C(c1ccccc1F)CS2)c1ccccc1` (stereo not given) the Ki was 220 nM. `COc1cccc(-c2c3n(c(=O)n(CC(N)c4ccccc4)c2=O)C(c2ccccc2)CO3)c1F` (stereo not given) was tested, and the Ki was 125 nM. `COc1cccc(-c2c3n(c(=O)n(CC(N)c4ccccc4)c2=O)C(c2ccccc2F)CS3)c1Cl` (stereo not given) gave a Ki of 4.5 nM. `NC(Cn1c(=O)c(-c2ccccc2F)c2n(c1=O)C(c1ccccc1)CO2)c1ccccc1` (stereo not given) was tested, and the Ki was 700 nM. Molecule `COc1cccc(-c2c3n(c(=O)n(CC(N)c4ccccc4)c2=O)C(c2ccccc2F)CS3)c1F` (stereo not given) has a Ki of 40 nM. For `COc1cccc(-c2c3n(c(=O)n(CC(N)c4ccccc4)c2=O)C(c2ccccc2)CO3)c1` (stereo not given), the Ki was 870 nM. For `COc1cccc(-c2c3n(c(=O)n(CCNCc4ccccc4)c2=O)[C@@H](c2ccccc2)CO3)c1F`, the Ki was 460 nM. `N[C@@H](Cn1c(=O)c(-c2ccccc2F)c2n(c1=O)C(c1ccccc1)CS2)c1ccccc1` (stereo not given in full) showed a Ki of 110 nM. `NC(Cn1c(=O)c(-c2ccccc2Cl)c2n(c1=O)C(c1ccccc1F)CS2)c1ccccc1` (stereo not given) gave a Ki of 93 nM.
